Assay results reported in publication PMC4718143, “A novel protocol for the one-pot borylation/Suzuki reaction provides easy access to hinge-binding groups for kinase inhibitors” (Organic & Biomolecular Chemistry, 2015).
Read-outs that look alike come from different tables or passages of the source. Each block holds one compound with its values, some of them ahead of it.

Legend:
Format in all cases: biochemical
RSK1 = molecular target: T1, RSK1 (Homo sapiens, UniProt Q15418); assay: ProfilerPro kinase panel, single concentration […]
T1 construct: gene RPS6KA1

AurA = molecular target: T2, AurA (Homo sapiens, UniProt O14965); assay: ProfilerPro kinase panel, single concentration […]
T2 construct: gene AURKA
T2 sequence (O14965 1-403): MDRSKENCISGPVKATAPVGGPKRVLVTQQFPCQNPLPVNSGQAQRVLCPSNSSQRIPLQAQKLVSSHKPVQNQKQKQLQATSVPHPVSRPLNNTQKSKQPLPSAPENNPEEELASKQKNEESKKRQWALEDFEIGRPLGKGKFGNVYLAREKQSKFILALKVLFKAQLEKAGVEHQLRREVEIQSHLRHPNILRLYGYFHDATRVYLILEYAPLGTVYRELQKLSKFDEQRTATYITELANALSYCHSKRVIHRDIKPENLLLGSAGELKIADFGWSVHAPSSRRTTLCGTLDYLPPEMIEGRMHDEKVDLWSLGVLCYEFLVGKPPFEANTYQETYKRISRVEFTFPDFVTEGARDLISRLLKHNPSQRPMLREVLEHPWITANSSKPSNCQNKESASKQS

PKD2 = molecular target: T3, PKD2 (Homo sapiens, UniProt Q9BZL6); assay: ProfilerPro kinase panel, single concentration […]
T3 construct: gene PRKD2
T3 sequence (Q9BZL6 1-878): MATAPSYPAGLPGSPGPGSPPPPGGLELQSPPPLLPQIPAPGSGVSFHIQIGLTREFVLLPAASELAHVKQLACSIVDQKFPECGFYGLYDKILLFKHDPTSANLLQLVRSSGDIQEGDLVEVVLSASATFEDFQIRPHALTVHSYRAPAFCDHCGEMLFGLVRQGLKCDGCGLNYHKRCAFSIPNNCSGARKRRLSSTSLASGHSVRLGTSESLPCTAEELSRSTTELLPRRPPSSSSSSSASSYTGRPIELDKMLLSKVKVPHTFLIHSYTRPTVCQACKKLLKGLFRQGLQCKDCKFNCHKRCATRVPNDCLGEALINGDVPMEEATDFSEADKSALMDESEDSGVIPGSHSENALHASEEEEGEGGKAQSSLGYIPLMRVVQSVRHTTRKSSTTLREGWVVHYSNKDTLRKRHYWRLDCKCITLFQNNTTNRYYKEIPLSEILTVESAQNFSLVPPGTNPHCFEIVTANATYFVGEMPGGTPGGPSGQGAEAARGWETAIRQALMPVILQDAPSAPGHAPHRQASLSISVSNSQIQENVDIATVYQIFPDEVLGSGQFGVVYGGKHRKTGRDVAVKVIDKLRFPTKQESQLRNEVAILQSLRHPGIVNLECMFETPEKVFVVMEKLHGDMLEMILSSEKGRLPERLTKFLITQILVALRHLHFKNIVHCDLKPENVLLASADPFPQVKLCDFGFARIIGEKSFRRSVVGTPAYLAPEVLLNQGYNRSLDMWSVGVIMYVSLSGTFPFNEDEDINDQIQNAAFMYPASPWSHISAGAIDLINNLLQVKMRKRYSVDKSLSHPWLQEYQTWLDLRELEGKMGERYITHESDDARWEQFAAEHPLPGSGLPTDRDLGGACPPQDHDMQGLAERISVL

INSR = INSR (Homo sapiens, UniProt P06213); assay: ProfilerPro kinase panel, single concentration […]
CHK2 = molecular target: T4, CHK2 (Homo sapiens, UniProt O96017); assay: ProfilerPro kinase panel, single concentration […]
T4 construct: gene CHEK2

ABL [1] = molecular target: T5, ABL (Homo sapiens, UniProt P00519); assay: kinase inhibition IC50 (Invitrogen), following ProfilerPro kinase panel ([…] at […])
T5 construct: gene ABL1

ABL [2] = molecular target: T5, ABL; assay: as above; remark: listed apart in the source

T5 sequence (P00519 whole entry): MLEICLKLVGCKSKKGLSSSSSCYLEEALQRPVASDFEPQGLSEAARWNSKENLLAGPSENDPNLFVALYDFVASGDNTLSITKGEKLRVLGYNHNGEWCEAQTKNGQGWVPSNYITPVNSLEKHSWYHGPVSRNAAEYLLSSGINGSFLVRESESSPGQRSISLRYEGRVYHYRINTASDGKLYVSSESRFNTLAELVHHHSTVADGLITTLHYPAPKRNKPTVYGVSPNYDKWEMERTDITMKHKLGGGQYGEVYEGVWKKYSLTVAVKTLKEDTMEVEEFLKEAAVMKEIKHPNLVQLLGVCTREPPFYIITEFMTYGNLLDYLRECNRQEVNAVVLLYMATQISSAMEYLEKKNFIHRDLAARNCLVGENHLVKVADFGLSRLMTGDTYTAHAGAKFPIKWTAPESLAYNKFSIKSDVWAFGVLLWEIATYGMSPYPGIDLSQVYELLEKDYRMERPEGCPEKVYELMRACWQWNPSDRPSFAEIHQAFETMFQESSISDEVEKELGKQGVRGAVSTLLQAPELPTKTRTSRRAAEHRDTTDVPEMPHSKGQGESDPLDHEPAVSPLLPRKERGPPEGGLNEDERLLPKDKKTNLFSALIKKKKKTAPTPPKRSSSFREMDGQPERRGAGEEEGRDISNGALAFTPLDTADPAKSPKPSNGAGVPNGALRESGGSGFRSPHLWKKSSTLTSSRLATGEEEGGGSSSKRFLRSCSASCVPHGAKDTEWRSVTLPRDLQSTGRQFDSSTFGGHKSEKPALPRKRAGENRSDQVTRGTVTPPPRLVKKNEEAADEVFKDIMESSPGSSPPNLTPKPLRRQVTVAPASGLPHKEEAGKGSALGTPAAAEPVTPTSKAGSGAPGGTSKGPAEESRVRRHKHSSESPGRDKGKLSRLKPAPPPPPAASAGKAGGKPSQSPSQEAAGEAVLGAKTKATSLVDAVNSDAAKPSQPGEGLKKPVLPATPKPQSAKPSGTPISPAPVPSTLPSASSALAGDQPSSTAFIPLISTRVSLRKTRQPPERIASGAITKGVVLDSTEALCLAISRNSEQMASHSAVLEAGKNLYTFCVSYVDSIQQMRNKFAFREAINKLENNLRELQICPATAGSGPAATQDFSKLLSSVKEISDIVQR
T4 sequence (O96017 whole entry): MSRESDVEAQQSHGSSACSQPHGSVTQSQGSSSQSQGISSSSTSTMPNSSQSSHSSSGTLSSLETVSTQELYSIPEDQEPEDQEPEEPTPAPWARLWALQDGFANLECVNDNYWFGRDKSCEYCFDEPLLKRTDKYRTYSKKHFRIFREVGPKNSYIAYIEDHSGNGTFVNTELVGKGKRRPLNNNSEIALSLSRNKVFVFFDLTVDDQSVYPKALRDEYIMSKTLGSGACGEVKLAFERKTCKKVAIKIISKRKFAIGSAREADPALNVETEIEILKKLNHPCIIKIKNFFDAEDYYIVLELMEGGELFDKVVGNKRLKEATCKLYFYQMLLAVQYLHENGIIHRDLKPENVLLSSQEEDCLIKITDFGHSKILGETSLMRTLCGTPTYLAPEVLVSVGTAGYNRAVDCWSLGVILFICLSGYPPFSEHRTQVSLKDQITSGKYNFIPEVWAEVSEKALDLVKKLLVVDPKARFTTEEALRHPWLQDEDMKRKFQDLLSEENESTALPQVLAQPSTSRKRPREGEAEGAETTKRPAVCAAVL
T1 sequence (Q15418 whole entry): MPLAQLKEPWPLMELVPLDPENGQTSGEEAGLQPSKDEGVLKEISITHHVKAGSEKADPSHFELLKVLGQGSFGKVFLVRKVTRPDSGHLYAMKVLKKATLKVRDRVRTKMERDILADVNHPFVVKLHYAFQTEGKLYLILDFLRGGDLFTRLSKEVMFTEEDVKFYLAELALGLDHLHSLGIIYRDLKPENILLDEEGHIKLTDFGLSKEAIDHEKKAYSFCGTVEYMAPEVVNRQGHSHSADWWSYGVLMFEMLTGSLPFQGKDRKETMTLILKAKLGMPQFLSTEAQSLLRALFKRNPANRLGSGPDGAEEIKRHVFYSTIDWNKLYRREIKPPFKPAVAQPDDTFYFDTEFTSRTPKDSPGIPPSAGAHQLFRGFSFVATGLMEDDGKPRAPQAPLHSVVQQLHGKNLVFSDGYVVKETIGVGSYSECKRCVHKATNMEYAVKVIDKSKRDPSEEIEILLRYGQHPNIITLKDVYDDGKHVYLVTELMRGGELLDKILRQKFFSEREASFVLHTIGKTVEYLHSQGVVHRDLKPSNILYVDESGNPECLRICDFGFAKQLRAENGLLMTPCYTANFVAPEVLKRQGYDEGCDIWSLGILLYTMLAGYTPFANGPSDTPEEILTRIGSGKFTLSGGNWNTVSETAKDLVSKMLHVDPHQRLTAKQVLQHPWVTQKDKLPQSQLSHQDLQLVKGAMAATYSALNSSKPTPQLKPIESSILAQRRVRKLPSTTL
Sequence of INSR (P06213 28-758): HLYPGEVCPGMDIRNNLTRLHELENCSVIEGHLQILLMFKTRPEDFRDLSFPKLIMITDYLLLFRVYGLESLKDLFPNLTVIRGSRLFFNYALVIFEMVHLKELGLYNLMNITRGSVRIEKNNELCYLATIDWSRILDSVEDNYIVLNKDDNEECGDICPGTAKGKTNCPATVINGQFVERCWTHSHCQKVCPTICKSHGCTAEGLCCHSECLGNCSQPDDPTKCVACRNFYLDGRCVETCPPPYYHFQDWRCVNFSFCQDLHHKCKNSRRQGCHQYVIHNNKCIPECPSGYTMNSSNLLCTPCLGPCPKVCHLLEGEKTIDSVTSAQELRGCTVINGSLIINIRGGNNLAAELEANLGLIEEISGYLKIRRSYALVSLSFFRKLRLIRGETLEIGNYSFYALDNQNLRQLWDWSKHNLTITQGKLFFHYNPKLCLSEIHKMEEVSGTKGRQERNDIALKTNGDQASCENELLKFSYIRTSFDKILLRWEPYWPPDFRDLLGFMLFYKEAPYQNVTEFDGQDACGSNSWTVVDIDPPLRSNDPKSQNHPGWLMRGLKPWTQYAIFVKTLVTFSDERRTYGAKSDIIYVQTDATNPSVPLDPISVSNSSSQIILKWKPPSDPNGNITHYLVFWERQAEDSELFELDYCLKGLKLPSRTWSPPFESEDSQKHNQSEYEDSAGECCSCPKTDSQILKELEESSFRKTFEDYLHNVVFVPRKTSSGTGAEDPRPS
Sequence of INSR (P06213 763-1382): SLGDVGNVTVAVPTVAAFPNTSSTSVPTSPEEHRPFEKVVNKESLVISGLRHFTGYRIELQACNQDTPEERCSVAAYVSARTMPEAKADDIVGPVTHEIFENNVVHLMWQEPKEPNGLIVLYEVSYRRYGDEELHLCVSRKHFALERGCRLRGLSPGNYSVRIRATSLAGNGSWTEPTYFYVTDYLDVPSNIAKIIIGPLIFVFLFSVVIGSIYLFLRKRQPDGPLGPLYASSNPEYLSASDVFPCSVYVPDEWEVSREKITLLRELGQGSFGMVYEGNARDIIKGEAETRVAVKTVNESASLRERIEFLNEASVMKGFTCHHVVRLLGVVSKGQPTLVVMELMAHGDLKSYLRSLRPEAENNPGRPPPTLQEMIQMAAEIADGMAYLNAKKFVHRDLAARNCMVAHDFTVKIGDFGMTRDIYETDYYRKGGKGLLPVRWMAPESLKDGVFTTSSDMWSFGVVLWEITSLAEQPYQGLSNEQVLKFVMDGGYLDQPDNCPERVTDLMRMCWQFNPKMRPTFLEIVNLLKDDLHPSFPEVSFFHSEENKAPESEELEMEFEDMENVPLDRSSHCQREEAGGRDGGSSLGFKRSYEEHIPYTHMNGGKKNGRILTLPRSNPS

inhibition at 300 µM (RSK1): 91%
SMILES: Clc1ccc(-c2cnc3[nH]ccc3c2)cc1 [4j]

inhibition at 300 µM (AurA): 99% | inhibition at 300 µM (PKD2): 92% | inhibition at 300 µM (INSR): 93% | inhibition at 300 µM (CHK2): 91%
SMILES: c1ccc(-c2cnc3[nH]ccc3c2)cc1 [4n]

IC50 (ABL [1]): 8.11 µM
SMILES: c1ccc(-c2ccc3ncccc3c2)cc1 [4o]

IC50 (ABL [2]): 19.2 µM
SMILES: Clc1ccnc2ccc(-c3ccccc3)cc12 [4p]
